This is an account of results in patent US20050228180A1, “Alpha, omega-dicarboximide derivatives as useful uro-selective a1a adrenoceptor blockers” (priority 2002, published 2005).

Structures can show the parent of a compound that is named as a salt.

One assay concerns the target T1, α1A adrenoceptor (Rattus norvegicus, UniProt P43140).
T1 construct: from tissue; host or cells: rat submaxillary gland membranes
T1 sequence (P43140 1-466): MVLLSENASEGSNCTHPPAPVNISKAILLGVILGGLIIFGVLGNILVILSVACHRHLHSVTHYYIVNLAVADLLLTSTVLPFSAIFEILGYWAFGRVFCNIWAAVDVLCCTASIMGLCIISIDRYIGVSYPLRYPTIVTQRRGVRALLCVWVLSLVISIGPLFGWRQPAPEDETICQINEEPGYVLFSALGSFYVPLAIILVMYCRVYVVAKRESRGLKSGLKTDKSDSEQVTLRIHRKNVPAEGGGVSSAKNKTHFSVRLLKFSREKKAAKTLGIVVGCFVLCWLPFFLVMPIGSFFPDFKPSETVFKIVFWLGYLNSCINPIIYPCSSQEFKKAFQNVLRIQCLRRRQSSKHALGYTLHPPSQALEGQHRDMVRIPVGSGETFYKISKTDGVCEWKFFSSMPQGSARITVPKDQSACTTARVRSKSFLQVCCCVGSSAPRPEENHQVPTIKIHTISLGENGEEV
Briefly: Radioligand binding, [3H] prazosin displacement, rat submaxillary membranes. The note with it: for Ki: [3H] prazosin displacement, rat submaxillary membranes, read-out: Affinity (Ki) α1A (Rat Submaxillary); for α1B/α1A: ratio of binding affinities, rat liver / rat submaxillary. The procedure: (§1) Receptor binding assays were performed using native a-adrenoceptors. The affinity of different compounds for α1A and α1B adrenoceptor subtypes was evaluated by studying their ability to displace specific [^3H] prazosin binding from the membranes of rat submaxillary and liver respectively (Michel et al., Br J Pharmacol, 1989: 98:883). The binding assays were performed according to U+Prichard et al. (Eur J Pharmacol, 1978; 50:87 with minor modifications.
(§2) Submaxillary glands were isolated immediately after sacrifice. The liver was perfused with buffer (Tris HCl 50 mM, NaCl 100 mM, 10 mM EDTA pH 7.4). The tissues were homogenised in 10 volumes of buffer (Tris HCl 50 mM, NaCl 100 mM, 10 mM EDTA pH 7.4). The homogenate was filtered through two layers of wet gauge and filtrate was centrifuged at 500 g for 10 min. The supernatant was subsequently centrifuged at 40,000 g for 45 min. The pellet thus obtained was resuspended in the same volume of assay buffer (Tris HCl 50 mM, 5 mM EDTA pH 7.4) and was stored at −70° C. until the time of assay.
(§3) The membrane homogenates (150-250 μg protein) were incubated in 250 μl of assay buffer (Tris HCl 50 mM, EDTA 5 mM, pH 7.4) at 24-25° C. for 1 hour. Non specific binding was determined in the presence of 300 nM prazosin. The incubation was terminated by vacuum filtration over GF/B fibre filters. The filters were then washed with ice cold 50 mM Tris HCl buffer (pH 7.4). The filtermats were dried and bound radioactivity retained on filters was counted. The IC50 and Kd were estimated by using the non-linear curve-fitting program using G Pad Prism software. The value of inhibition constant Ki was calculated from competitive binding studies by using Cheng & Prusoff equation (Cheng & Prusoff, Biochem Pharmacol, 1973, 22: 3099-3108), Ki=IC50/(1+L/Kd) where L is the concentration of [^3H] prazosin used in the particular experiment (Table 1).

A further assay addresses T2, α1B adrenoceptor (Rattus norvegicus, UniProt P15823).
T2 construct: from tissue; host or cells: rat liver membranes
T2 sequence (P15823 1-515): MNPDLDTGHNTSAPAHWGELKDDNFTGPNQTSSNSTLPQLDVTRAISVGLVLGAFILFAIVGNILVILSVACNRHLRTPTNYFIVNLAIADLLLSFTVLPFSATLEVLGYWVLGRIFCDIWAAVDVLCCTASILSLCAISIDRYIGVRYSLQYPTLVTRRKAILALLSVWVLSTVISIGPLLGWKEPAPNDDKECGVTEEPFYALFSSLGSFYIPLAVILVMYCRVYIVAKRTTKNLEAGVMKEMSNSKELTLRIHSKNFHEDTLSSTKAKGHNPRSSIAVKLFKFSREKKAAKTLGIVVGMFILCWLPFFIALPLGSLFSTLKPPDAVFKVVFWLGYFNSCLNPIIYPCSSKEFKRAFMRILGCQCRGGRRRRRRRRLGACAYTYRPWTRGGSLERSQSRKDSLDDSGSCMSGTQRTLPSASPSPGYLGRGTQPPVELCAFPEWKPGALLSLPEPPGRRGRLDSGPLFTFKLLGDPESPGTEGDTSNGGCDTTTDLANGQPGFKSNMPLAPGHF
Description: Radioligand binding, [3H] prazosin displacement, rat liver membranes. The note with it: read-out: Affinity (Ki) α1B (Rat Liver). The procedure:
as §1, §2, §3

Take “1-[4-(2-Ethoxyphenyl)piperazin-1-yl]-3-(2,6-dioxopiperadin-1-yl)ethane hydrochloride [compound 05]”: the Ki at α1A adrenoceptor came to 70 nM; on α1B adrenoceptor, 1380 nM. Also, the α1B/α1A at α1A adrenoceptor turned out to be 20.

Regarding `Cl.O=C1C2CC=CCC2C(=O)N1CC(O)CN1CCN(c2ccccc2O)CC1` (centres unmarked) [Compound No. 14, 2-[3-{4-(2-Hydroxyphenyl)piperazin-1-yl}-2-hydroxypropyl]-3a,4,7,7a-tetrahydro-1H-isoindole-1,3(2H)-dione hydrochloride], at α1A adrenoceptor, the Ki was 49 nM and the α1B/α1A was determined as 10. For the same molecule, on α1B adrenoceptor, the Ki is 504 nM.

In the case of `CCOc1ccccc1N1CCN(CCN2C(=O)C3CC=CCC3C2=O)CC1.Cl` (centres unmarked) [Compound No. 15, 2-[2-{4-(2-Ethoxyphenyl)piperazin-1-yl}ethyl]-3a,4,7,7a-tetrahydro-1H-isoindole-1,3(2H)-dione hydrochloride], on α1A adrenoceptor, the inhibition constant Ki was found to be 35 nM and the α1B/α1A was 10. Moreover, the Ki on α1B adrenoceptor stood at 346 nM.

As for `Cl.O=C1C2CC=CCC2C(=O)N1CCN1CCN(c2ccccc2OCC(F)(F)F)CC1` (centres unmarked) [Compound No. 16, 2-[2-{4-(2-(2,2,2-Trifluoroethoxy)phenyl)piperazin-1-yl}ethyl]-3a,4,7,7a-tetrahydro-1H-isoindole-1,3(2H)-dione hydrochloride], the Ki on α1A adrenoceptor was found to be 19 nM; on α1B adrenoceptor it was 267 nM. Also, at α1A adrenoceptor, the α1B/α1A is 14.

For the molecule `CCOc1ccccc1N1CCN(CCCN2C(=O)C3CC(O)C(Cl)CC3C2=O)CC1.Cl` (centres unmarked) [Compound No. 17, hydrochloride], the results for the Ki at α1A adrenoceptor and at α1B adrenoceptor were 1.6 nM and 80 nM, respectively.

On to `O=C1C2CC=CCC2C(=O)N1CCC[N+]1([O-])CCN(c2ccccc2O)CC1` (centres unmarked) [Compound No. 22, 2-[3-{4-(2-Hydroxyphenyl)piperazin-1-yl, 1-N-oxide}propyl]-3a,4,7,7a-tetrahydro-1H-isoindole-1,3(2H)-dione], for which, at α1A adrenoceptor, the Ki came to 1590 nM and the α1B/α1A came out at 0.7. Besides, the Ki on α1B adrenoceptor is 1090 nM.

For `CCOc1ccc(O)cc1N1CCN(CCCN2C(=O)C3CC=CCC3C2=O)CC1` (centres unmarked) [Compound No. 24, 2-[3-{4-(2-Ethoxy-5-hydroxyphenyl)piperazin-1-yl}propyl]-3a,4,7,7a-tetrahydro-1H-isoindole-1,3-(2H)-dione hydrochloride], on α1A adrenoceptor, the Ki is 5.9 nM and the α1B/α1A came to 84. Also, the Ki on α1B adrenoceptor is 495 nM.

Consider `CC(C)Oc1cccc(O)c1N1CCN(CCCN2C(=O)C3CC=CCC3C2=O)CC1` (centres unmarked) [Compound No. 27, 2-[3-{4-(2-isopropoxy-6-hydroxyphenyl)piperazin-1-yl}propyl]-3a,7,7a-tetrahydro-1H-isoindole-1,3(2H)-dione hydrochloride], for which, on α1A adrenoceptor, the Ki turned out to be 306 nM and the α1B/α1A is 16. The Ki on α1B adrenoceptor was greater than 5000 nM.

For the molecule `CC(C)Oc1c(O)cccc1N1CCN(CCCN2C(=O)C3CC=CCC3C2=O)CC1` (centres unmarked) [Compound No. 35, 2-[3-{4-(2-Isopropoxy-3-hydroxyphenyl)piperazin-1-yllpropyl]-3a,4,7,7a-tetrahydro-1H-isoindole-1,3(2H)-dione hydrochloride], on α1A adrenoceptor, the Ki came to 38 nM and the α1B/α1A is listed as 15. At α1B adrenoceptor, the Ki is 582 nM.

For `CC(C)Oc1ccc(O)cc1N1CCN(CCCN2C(=O)CCCC2=O)CC1` [Compound No. 36, 1-[4-(2-Isopropoxy-5-hydroxyphenyl)piperazin-1-yl]-3-(2,6-dioxopiperdin-1-yl)piperazin-1-yl]-3-(2,6-dioxopiperidin-1-yl)propane hydrochloride], on α1A adrenoceptor, the Ki is 11 nM and the α1B/α1A is given as 52. Further, the Ki on α1B adrenoceptor amounted to 571 nM.

In the case of `CC(C)Oc1cccc(O)c1N1CCN(CCCN2C(=O)CCCC2=O)CC1` [Compound No. 37, 1-[4-(2-Isopropoxy-6-hydroxyphenyl)piperazin-1-yl]-3-(2,6-dioxopiperdin-1-yl)propane hydrochloride], on α1A adrenoceptor, the Ki is 462 nM and the α1B/α1A was greater than 2. Moreover, the Ki at α1B adrenoceptor is greater than 1000 nM.

On to `CC(C)Oc1c(O)cccc1N1CCN(CCCN2C(=O)CCCC2=O)CC1.Cl` [Compound No. 38, 1-[4-(2-Isopropoxy-3-hydroxyphenyl)piperazin-1-yl]-3-(2,6-dioxopiperidin-1-yl)propane hydrochloride], for which, on α1A adrenoceptor, the Ki is 141 nM and the α1B/α1A is recorded as 5. Further, at α1B adrenoceptor, the Ki came to 760 nM.

As for `Cl.O=C1CCCC(=O)N1CC(O)CN1CCN(c2ccccc2OCC(F)(F)F)CC1` (centres unmarked) [Compound No. 39, 1-[4-{2-(2,2,2-Trifluoroethoxy)phenyl)piperazin-1-yl]-2-hydroxy-3-(2,6-dioxopiperidin-1-yl)propane hydrochloride], at α1A adrenoceptor, the Ki stood at 6.9 nM and the α1B/α1A is on record as 200. Further, on α1B adrenoceptor, the Ki was determined as 1380 nM.

As for `CC(C)Oc1ccccc1NCCNCCCN1C(=O)[C@H]2CC=CC[C@H]2C1=O` [Compound No. 42, 2-[N-{N′-(2-Isopropoxyphenyl)aminoethyl}aminopropyl]-3a,4,7,7a-tetrahydro-1H-isoindole-1,3(2H)-dione hydrochloride], the Ki on α1A adrenoceptor was determined as 19 nM; at α1B adrenoceptor it was 781 nM. Also, the α1B/α1A at α1A adrenoceptor is reported as 41.

Consider `Cl.O=C1CCCC(=O)N1CC(O)CN1CCN(c2ccccc2O)CC1` (centres unmarked) [Compound No. 44, 1-[4-(2-hydroxyphenyl)piperazin-1-yl]-2-hydroxy-3-(2,6-dioxopiperidin-1-yl]propane hydrochloride], for which the Ki was 594 nM on α1A adrenoceptor and 1740 nM at α1B adrenoceptor. The α1B/α1A on α1A adrenoceptor came out at 3.

With `O=C1C2CC=CCC2C(=O)N1CCCN1CCN(c2ccccc2-c2ccccc2)CC1` (centres unmarked) [Compound No. 45, 2-[3-{4-(2-Biphenyl)piperazin-1-yl}propyl]-3a,4,7,7a-tetrahydro-1H-isoindole-1,3(2H)-dione hydrochloride], on α1A adrenoceptor, the Ki is 8.6 nM and the α1B/α1A was found to be 14. In addition, at α1B adrenoceptor, the Ki is 120 nM.

In the case of `CC(=O)N(CCCN1C(=O)C2CC=CCC2C1=O)CCNc1ccccc1OC(C)C.Cl` (centres unmarked) [Compound No. 46, 2-[N-{N′-(2-Isopropoxyphenyl)aminoethyl}acetylaminopropyl]-3a,4,7,7a-tetrahydro-1H-isoindole-1,3(2H)-dione hydrochloride], on α1A adrenoceptor, the Ki came out at 379 nM and the α1B/α1A is listed as greater than 3. For the same molecule, the inhibitory constant (Ki) on α1B adrenoceptor is greater than 1000 nM.

On to `CC(=O)N(CCNCCCN1C(=O)C2CC=CCC2C1=O)c1ccccc1OC(C)C.Cl` (centres unmarked) [Compound No. 47, 2-[N-{N′-(2-Isopropoxyphenyl)acetylaminoethyl}aminopropyl]-3a,4,7,7a-tetrahydro-1H-isoindole-1,3(2H)-dione hydrochloride], for which the Ki on α1A adrenoceptor is 299 nM; on α1B adrenoceptor, greater than 1000 nM. Besides, the α1B/α1A at α1A adrenoceptor was greater than 3.

In the case of `CC(C)Oc1ccccc1NCCN(CCO)CCCN1C(=O)[C@H]2CC=CC[C@H]2C1=O` [Compound No. 48, 2-[N-[{N′-(2-Isopropoxyphenyl)aminoethyl}hydroxyethyl]aminopropyl]-3a,4,7,7a-tetrahydro-1H-isoindole-1,3(2H)-dione hydrochloride], on α1A adrenoceptor, the Ki is 91 nM and the α1B/α1A is given as greater than 11. Moreover, the Ki on α1B adrenoceptor is greater than 1000 nM.
